Entries after “also recorded” stand apart in the source; their conditions may differ.
What was measured:
HT-1080 cells [1] = assay: Cell death assay (PI flow cytometry), HT-1080 cells incl. knockout lines; conditions: for cell death in combination with RSL3: combined with RSL3, compared to RSL3 alone; for cell death in combination with FIN56: combined with ferroptosis inducer FIN56; for cell death in combination with ML-162: combined with ferroptosis inducer ML-162; for cell death over various concentrations of RSL3: combined with various concentrations of RSL3; for cell death in SHMT2 knockout cells: ferroptosis inducer in SHMT2 knockout cells; for rescue of RSL3 plus sulfite induced cell death or decrease in cell viability: cell death inhibitors added to RSL3 plus sulfite; for cell death in MTHFD2 knockout cells: ferroptosis inducer in MTHFD2 knockout HT-1080 cells; for cell death in combination with JKE-1674: combined with ferroptosis inducer JKE-1674 (JKE)
Experimental: Initially, the effect of sulfite on ferroptosis was studied. […] Each group was treated with vehicle alone or with sulfite.
The knockout cells were identified by immunoblotting.
Briefly, cells were seeded in 12-well plates and incubated overnight. After treatment, cells were trypsinized and collected. After washing with cold phosphate-buffered saline (PBS), the cells were stained with 2 μg/mL propidium iodide (PI) in cold PBS. […] All experiments were performed in triplicates.

HT-1080 cells [2] = assay: Relative mitochondrial lipid peroxidation level; format: cell-based, human; conditions: for relative mitochondrial lipid peroxidation level in combination with RSL3: combined with RSL3, compared to RSL3 alone
HT-1080 cells [3] = assay: Lipid peroxidation measurement (C11-BODIPY 581/591, flow cytometry); format: cell-based, human; conditions: for relative lipid peroxidation level in combination with RSL3: combined with RSL3, compared to RSL3 alone
Experimental: Cells were seeded on 12-well plates and incubated overnight. After treating with compounds for indicated time, cells were incubated in media containing 5 μM C11-BODIPY 581/591 (Invitrogen) for 30 min at 37° C. Then cells were trypsinized and collected. […] All experiments were performed in triplicates.

[4] = system: HT-1080, 786-O, U87, T98G, RCC4, H1299, A549, Hela and Hs578T; assay: Cell death assay (PI flow cytometry), panel of cancer cell lines; format: cell-based, human; conditions: for enhancement of ferroptosis induced by RSL3: panel of cell lines tested
Experimental: All cell lines used in this study were free of mycoplasma contamination (per testing done by the vendor). All the cells were cultured in a 37° C. incubator in a 5% CO2 atmosphere. H1299 cells were cultured in RPMI-1640 medium supplemented with 10% fetal bovine serum and 10,000 U/mL penicillin-streptomycin. HT-1080, 786-O, U87, T98G, RCC4, A549, Hela and Hs578T cells were cultured in Dulbecco modified Eagle medium (DMEM) supplemented with 10% fetal bovine serum and 10,000 U/mL of penicillin-streptomycin.
After treatment, cells were trypsinized and collected. […] All experiments were performed in triplicates.

[5] = system: HT-1080-derived xenografts; assay: HT-1080-derived xenograft in nude mice; format: in vivo; conditions: for growth of HT-1080-derived xenografts (tumor volume): nude mice
Excerpt: To assess the in vivo impact of the combination of SHMT inhibition and GPX4 inhibition, the SHMT inhibitor sertraline was utilized, an FDA-approved drug, and the GPX4 inhibitor JKE-1674 for both in vitro and in vivo cell treatments. The data reveal that both SHIN2 and sertraline sensitize cancer cells to JKE-1674-induced ferroptosis (FIG. 11A-11B). […] Additionally, liproxstain-1 reversed the 4-HNE staining score back to levels similar to the vehicle control (FIG. 11F-I).

LKR-13 tumor = LKR-13 tumor growth in 129/Sv mouse model; format: in vivo
Excerpt: The assessment of ferroptosis function on the growth of either cell-derived or patient-derived xenografts is typically conducted in immunodeficient mice, such as nude mice or NSG mice. However, for applications in clinical settings, it becomes important to evaluate ferroptosis function in immunocompetent mice. To gain a more comprehensive understanding of the role of SHMT2 inhibition in combination with ferroptosis in cancer treatment, the investigations were extended to LKR13, a mouse cell line, both in vitro and in vivo. Initially, it was confirmed that sertraline promotes JKE-1674-induced ferroptosis in vitro (FIG. 11J-11K). Subsequently, the effects of sertraline, JKE-1674, and their combination were examined on a LKR-13 tumor growth in a 129/Sv mouse model.

HT-1080 cells [6] = assay: Cell viability assay (CCK-8); format: cell-based, human
Experimental: Cell viability was measured using a Cell Counting Kit-8 (CCK-8, Dojindo) as previously described (Koppula, P., et al. J Biol Chem 292, 14240-14249, doi: 10.1074/jbc.M117.798405 (2017); Liu, X. et al. Nat Cell Biol 18, 431-442, doi: 10.1038/ncb3328 (2016)). In brief, cells were seeded onto 96-well plates at a density of 1×10^4 per well. The next day, cells were treated with indicated compound for 16-20 h. Subsequently, cells were changed to new 100 μl medium containing 10 μl CCK-8 reagent for 1 h at 37° C., 5% CO2 in incubator. The absorbance at 450 nm was determined using a FLUOstar Omega microplate reader (BMG Labtech).

NADP+/NADPH = assay: NADP+ and NADPH measurement; format: cell-based; conditions: treated vs untreated cells
LKR13, a mouse cell line = assay: Cell death of LKR-13 cells in vitro; format: cell-based; conditions: 24 hrs
Experimental: Cell death was measured and analyzed using flow cytometry as described previously (Zhang, Y., et al. Cell Cycle 18, 773-783, doi: 10.1080/15384101.2019.1597506 (2019); Koppula, P. et al. Nature communications 13, 2206, doi: 10.1038/s41467-022-29905-1 (2022)). Briefly, cells were seeded in 12-well plates and incubated overnight. After treatment, cells were trypsinized and collected. After washing with cold phosphate-buffered saline (PBS), the cells were stained with 2 μg/mL propidium iodide (PI) in cold PBS. The fraction of dead cells (PI-positive cells) was measured using a Attune Flow Cytometer (ThermoFisher) and analyzed by FlowJo 10 software (Lin, A. et al. Oncogene 33, 3183-3194, doi: 10.1038/one.2013.273 (2014); Liu, X. & Gan, B. et al. Cell Cycle 15, 3471-3481, doi: 10.1080/15384101.2016.1249545 (2016)). All experiments were performed in triplicates.

[7] = RSL3 treated SUOX knockout cells
[8] = HT-1080 tumors, immunochemistry

NC(=O)c1ccc(N)nc1 [6-AN, 6-Aminonicotinamide]
cell death in combination with RSL3 (HT-1080 cells [1]): enhanced the cell death
cell death induced by the agent on its own (HT-1080 cells [1]; without RSL3): did not induce cell death on its own

Nc1nc2ccn(CCCCc3ccc(C(=O)N[C@@H](CCC(=O)O)C(=O)O)c(F)c3)c2c(=O)[nH]1 [AGF347]
relative mitochondrial lipid peroxidation level in combination with RSL3 (HT-1080 cells [2]): increased relative mitochondrial lipid peroxidation level; also recorded: increase mitochondrial lipid peroxidation
cell death in combination with RSL3 (HT-1080 cells [1]): increase cell death
cell death in combination with FIN56 (HT-1080 cells [1]): also observed; also recorded: increase cell death
cell death in combination with ML-162 (HT-1080 cells [1]): also observed; also recorded: increase cell death
cell death over various concentrations of RSL3 (HT-1080 cells [1]): enhance cell death
relative lipid peroxidation level in combination with RSL3 (HT-1080 cells [3]): increased lipid peroxidation levels; also recorded: increase lipid peroxidation

O=S(=O)(NC1CCCCC1)c1ccc2c(c1)C(=NO)c1cc(S(=O)(=O)NC3CCCCC3)ccc1-2 [FIN56]
cell death in SHMT2 knockout cells (HT-1080 cells [1]): induced cell death and or decrease viability

CCOC(=O)c1ccc(NC2CCCCC2)c(N)c1 [Fer-1, Ferrostatin-1]
rescue of ferroptosis induced by the combination of RSL3 and sulfite ([4]; Fer-1 5 μm): could be rescued
rescue of the impact of SUOX knockout on RSL3 cell death (HT-1080 cells [1]; Fer-1 and RSL3, SUOX knockout HT-1080 cells): rescued
cell death of RSL3 and 6-AN combination when combined with Ferr-1 (HT-1080 cells [1]; RSL3 + 6-AN + Ferr-1): did not induce cell death
SHMT2 knockout increase of RSL3 mediated cell death when combined with Fer-1 (HT-1080 cells [1]; RSL3 + Fer-1, SHMT2 knockout cells): not observed
rescue of RSL3 plus sulfite induced cell death or decrease in cell viability (HT-1080 cells [1]): rescued

O=C(/C(C[N+](=O)[O-])=N/O)N1CCN(C(c2ccc(Cl)cc2)c2ccc(Cl)cc2)CC1 [JKE-1674]
growth of HT-1080-derived xenografts (tumor volume) [5]: no discernible effect
LKR13 tumor graft growth (LKR-13 tumor): did not impact
cell death in MTHFD2 knockout cells (HT-1080 cells [1]): significantly increase
cell death in SHMT2 knockout cells (HT-1080 cells [1]): induced cell death and or decrease viability

COc1ccc(N(C(=O)CCl)C(C(=O)NCCc2ccccc2)c2cccs2)cc1Cl (stereo not drawn) [ML-162]
cell death in MTHFD2 knockout cells (HT-1080 cells [1]): significantly increase
cell death in SHMT2 knockout cells (HT-1080 cells [1]): induced cell death and or decrease viability

COC(=O)c1ccc([C@H]2c3[nH]c4ccccc4c3C[C@H](C(=O)OC)N2C(=O)CCl)cc1 [RSL3]
relative mitochondrial lipid peroxidation level % in SUOX knockout cells (HT-1080 cells [2]; [7]): mirrored
mitochondrial lipid peroxidation level in SHMT2 knock out cells (HT-1080 cells [2]; upon RSL3 treatment): increased mitochondrial lipid peroxidation level
cell viability in SHMT2 knockout cells (HT-1080 cells [6]; varying concentrations of RSL3, SHMT2 knockout): reduced
cell death in SUOX knockout cells vs sg control cells (HT-1080 cells [1]; SUOX knockout HT-1080 cells): Greater cell death
cell death in MTHFD2 knockout cells (HT-1080 cells [1]): significantly increase
cell death in SHMT2 knockout cells (HT-1080 cells [1]): increased
relative lipid peroxidation level % in SUOX knockout cells (HT-1080 cells [3]; [7]): mirrored
lipid peroxidation level in SHMT2 knock out cells (HT-1080 cells [3]; upon RSL3 treatment): increased lipid peroxidation level

N[C@@H](CSS(=O)(=O)O)C(=O)O [S-sulfocysteine]
cell viability when combined with different concentrations of RSL3 (HT-1080 cells [6]; combined with RSL3, range of concentrations): sensitized
cell death in combination with RSL3 (HT-1080 cells [1]): sensitized
cell death in combination with FIN56 (HT-1080 cells [1]): sensitized
cell death in combination with JKE-1674 (HT-1080 cells [1]): sensitized
cell death in combination with ML-162 (HT-1080 cells [1]): sensitized
cell death in combination with ML-210 (HT-1080 cells [1]; combined with ferroptosis inducer ML-210): sensitized
relative lipid peroxidation level in combination with FIN56 (HT-1080 cells [3]; combined with FIN56): increased
relative lipid peroxidation level in combination with RSL3 (HT-1080 cells [3]): increased

Cc1n[nH]c2c1[C@](c1cc(CO)cc(-c3ccccc3)c1)(C(C)C)C(C#N)=C(N)O2 [SHIN1]
relative mitochondrial lipid peroxidation level in combination with RSL3 (HT-1080 cells [2]): increased relative mitochondrial lipid peroxidation level; also recorded: increase mitochondrial lipid peroxidation
enhancement of ferroptosis induced by RSL3 [4]: enhance ferroptosis
NADP+/NADPH ratio (NADP+/NADPH): higher
cell death in combination with RSL3 (HT-1080 cells [1]): increase cell death
cell death in combination with FIN56 (HT-1080 cells [1]): also observed; also recorded: increase cell death
cell death in combination with ML-162 (HT-1080 cells [1]): also observed; also recorded: increase cell death
cell death over various concentrations of RSL3 (HT-1080 cells [1]): enhance cell death
relative lipid peroxidation level in combination with RSL3 (HT-1080 cells [3]): increased lipid peroxidation levels; also recorded: increase lipid peroxidation

Cc1n[nH]c2c1[C@](c1cc(C#CCCCO)cc(CO)c1)(C(C)C)C(C#N)=C(N)O2 [SHIN2]
relative mitochondrial lipid peroxidation level in combination with RSL3 (HT-1080 cells [2]): increased relative mitochondrial lipid peroxidation level; also recorded: increase mitochondrial lipid peroxidation
enhancement of ferroptosis induced by RSL3 [4]: enhance ferroptosis
NADP+/NADPH ratio (NADP+/NADPH): higher
cell death in combination with RSL3 (HT-1080 cells [1]): increase cell death
cell death in combination with FIN56 (HT-1080 cells [1]): also observed; also recorded: increase cell death
cell death in combination with JKE-1674 (HT-1080 cells [1]): enhance cell death; also recorded: sensitize
cell death in combination with ML-162 (HT-1080 cells [1]): also observed; also recorded: increase cell death
cell death over various concentrations of RSL3 (HT-1080 cells [1]): enhance cell death
relative lipid peroxidation level in combination with RSL3 (HT-1080 cells [3]): increased lipid peroxidation levels; also recorded: increase lipid peroxidation

O=S(=O)([O-])[O-].[Na+].[Na+] [Sulfate, Sodium sulfate]
cell death in combination with RSL3 (HT-1080 cells [1]): did not synergistically increase

Clc1cccc(CN=C2Nc3ccccc3NC23CCNCC3)c1 [liproxstain-1, Liproxstatin-1]
4-HNE staining score when added to JKE-1674+sertraline ([5]; HT-1080 tumors, JKE-1674+sertraline+Lip-1): reversed
rescue of RSL3 plus sulfite induced cell death or decrease in cell viability (HT-1080 cells [1]): rescued

CN[C@H]1CC[C@@H](c2ccc(Cl)c(Cl)c2)c2ccccc21 [sertraline]
JKE-1674-induced ferroptosis in vitro (LKR13, a mouse cell line): promotes
staining for Ki-67 in tumors [5, 8]: did not alter staining
staining for cleaved caspase-3 in tumors [5, 8]: did not alter staining
growth of HT-1080-derived xenografts (tumor volume) [5]: no discernible effect
LKR13 tumor graft growth (LKR-13 tumor): did not impact
relative mitochondrial lipid peroxidation level in combination with RSL3 (HT-1080 cells [2]): significantly increase
cell death in combination with RSL3 (HT-1080 cells [1]): significantly increase
cell death in combination with JKE-1674 (HT-1080 cells [1]): enhance cell death; also recorded: sensitize
cell death in combination with ML-162 (HT-1080 cells [1]): significantly enhance
cell death over various concentrations of RSL3 (HT-1080 cells [1]): enhance cell death
relative lipid peroxidation level in combination with RSL3 (HT-1080 cells [3]): significantly increase

O=S(O)(O)=S [thiosulfate, Sodium Thiosulfate]
cell death as observed visually (HT-1080 cells [1]; 0.5 mM, cancer cells, presence or absence of RSL3): to a very small extent
cell death in combination with RSL3 (HT-1080 cells [1]): significantly more than the cell death observed with vehicle control upon treatment with RSL3, but less than the cell death observed with sulfite

Source: patent US20260248767A1, “METHODS FOR INDUCING FERROPTOSIS IN CANCER” (Board of Regents, The University of Texas System, priority 2023, published 2026)
